The Deep4Chem optical property database
Where “and” joins values, the source holds several entries; their conditions need not be identical. Equal values may be shown once. One block for each compound: values may come before it.

Test: solvent given as SMILES

fluorescence lifetime (in C1CCOC1): 2.42 ns | fluorescence lifetime (in C1COCCO1): 2.33 ns | fluorescence lifetime (in CC#N): 2.24 ns | fluorescence lifetime (in CC(C)O): 1.98 ns | fluorescence lifetime (in CCO): 1.78 ns | fluorescence lifetime (in CCOC(C)=O): 2.35 ns | fluorescence lifetime (in CN(C)C=O): 2.45 ns | fluorescence lifetime (in CO): 1.64 ns | fluorescence lifetime (in CS(C)=O): 2.45 ns | fluorescence lifetime (in O): 3.17 ns
Structure (SMILES): NS(=O)(=O)c1ccc(N2N=C(c3ccc(O)cc3)CC2c2ccc(F)cc2)cc1 (stereo not drawn)

fluorescence lifetime (in C1CCCCC1): 17.7 ns
Structure (SMILES): COc1ccc(-c2ccc(OC)cc2)cc1

fluorescence lifetime (in ClC(Cl)Cl): 8.97 ns
Structure (SMILES): CCCCCCN1C(=O)c2cccc3cc(/N=C\c4ccc5c(c4)c4ccccc4n5CC)cc(c23)C1=O

fluorescence lifetime (in C1CCCCC1): 3.01 ns | fluorescence lifetime (in CCOC(C)=O): 0.938 ns
Structure (SMILES): CC1=[N+]2C(=C(c3ccc(Br)cc3)c3ccc(C)n3[B-]2(F)F)C=C1c1cc2n(c1)[B-](F)(F)[N+]1=CC=CC1=C2c1c(C)cc(C)cc1C

fluorescence lifetime (in O): 17 ns
Structure (SMILES): COc1ccc2c(c1)c(=O)c1ccccc1n2CCCCCC(=O)O

fluorescence lifetime (in CC#N): 5 ns
Structure (SMILES): Cc1ccc(C)n1-c1ccccc1

fluorescence lifetime (in ClC(Cl)Cl): 2.72 ns
Structure (SMILES): F[B-]1(F)OC(c2ccc(N3CCCC3)cc2)=Cc2cccc[n+]21

fluorescence lifetime (in ClCCl): 2.53 ns
Structure (SMILES): COc1ccc2c(c1)CCC1=C(C#Cc3ccc(Cl)cc3)O[B-](F)(F)[O+]=C12

fluorescence lifetime (in CC#N): 2.81 ns
Structure (SMILES): C=CC(=O)Oc1ccc2cc(C=C)c(=O)oc2c1

fluorescence lifetime (in CC1CCCCC1): 0.609 ns | fluorescence lifetime (in CC#N): 1.19 ns | fluorescence lifetime (in CO): 2.17 ns
Structure (SMILES): COC(=O)C(Cc1ccc2oc(-c3ccncc3)nc2c1)NC(=O)OC(C)(C)C (stereo not drawn)

fluorescence lifetime (in ClCCl): 5 ns
Structure (SMILES): CC(C)(C)c1ccc2c(c1)sc1[n+]2[B-](F)(F)n2c(c3cccc4c(Br)ccc2c43)=N1

fluorescence lifetime (in CC#N): 1.1 ns and 1.24 ns
Structure (SMILES): COc1ccc(-c2nc(-c3ccc(-c4nc(-c5ccc(OC)cc5)c(-c5ccc(OC)cc5)[nH]4)cc3)[nH]c2-c2ccc(OC)cc2)cc1

fluorescence lifetime (in CO): 1.7 ns
Structure (SMILES): CCOC(=O)CCCCCn1c2ccccc2c(=O)c2cc(I)ccc21

fluorescence lifetime (in ClCCl): 3.8 ns
Structure (SMILES): C[Si]1(C)c2ccc(C#Cc3ccccc3)cc2C=Cc2cc(C#Cc3ccccc3)ccc21

Continued, compound first:

Structure (SMILES): Cc1ccccc1-c1cc(-c2ccc(N3c4ccccc4C(C)(C)c4ccccc43)cc2)nc(-c2ccccc2)n1
fluorescence lifetime (in Cc1ccccc1): 2.76 ns | fluorescence lifetime (in ClCCl): 22.7 ns

Structure (SMILES): N#CC=C(c1ccc(N2c3ccccc3Oc3ccccc32)cc1)c1ccc(N2c3ccccc3Oc3ccccc32)cc1
fluorescence lifetime (in Cc1ccccc1): 5.84 ns

Structure (SMILES): CCC(CC)COC1=CC2=C3c4cc(OCC(CC)CC)c(-c5cccs5)n4[B-](F)(F)[n+]4c3n(c3cc(C(C)(C)C)ccc34)[B-](F)(F)[N+]2=C1c1cccs1
fluorescence lifetime (in C1CCOC1): 0.5 ns | fluorescence lifetime (in ClCCl): 0.7 ns

Structure (SMILES): O=C1C(=c2c(=O)c3c4ccccc4cc4cc5ccccc5c2c43)C(=O)c2ccccc21
fluorescence lifetime (in C1CCOC1): 10.7 ns | fluorescence lifetime (in CC#N): 6.9 ns | fluorescence lifetime (in CCCCCC): 12.4 ns | fluorescence lifetime (in Cc1ccccc1): 11.3 ns | fluorescence lifetime (in ClCCl): 8.7 ns

Structure (SMILES): CC1(C)C(/C=C/C2=C(Cl)C(=C/C=C3/N(CCCS(=O)(=O)[O-])c4ccccc4C3(C)C)/CCC2)=[N+](CCCS(=O)(=O)[O-])c2ccccc21
fluorescence lifetime (in CO): 0.529 ns

Structure (SMILES): Cc1cc(C)c(B(c2ccc(-c3cc4ccc5cccc6ccc(c3)c4c56)cc2)c2c(C)cc(C)cc2C)c(C)c1
fluorescence lifetime (in Cc1ccccc1): 65 ns

Structure (SMILES): COc1cc2[nH]c3c(c2cc1OCC(=O)O)CCCC3=O
fluorescence lifetime (in C1CCOC1): 0.411 ns | fluorescence lifetime (in C1COCCO1): 0.189 ns | fluorescence lifetime (in CC#N): 0.627 ns | fluorescence lifetime (in CCCCCCCCCCCCO): 1.24 ns | fluorescence lifetime (in CCCCCCCCCCO): 1.17 ns | fluorescence lifetime (in CCCCCCCCO): 1.15 ns | fluorescence lifetime (in CCCCCCO): 1.17 ns | fluorescence lifetime (in CCCCO): 1.29 ns | fluorescence lifetime (in CCO): 1.69 ns | fluorescence lifetime (in CCOC(C)=O): 0.279 ns | fluorescence lifetime (in CN(C)C=O): 1.92 ns | fluorescence lifetime (in CO): 1.87 ns | fluorescence lifetime (in CS(C)=O): 2.27 ns | fluorescence lifetime (in Cc1ccccc1): 0.189 ns | fluorescence lifetime (in O): 2.23 ns | fluorescence lifetime (in c1ccccc1): 0.188 ns

Structure (SMILES): CC(=O)O[B-]1(OC(C)=O)OC(/C=C/c2ccc(C)cc2)=CC(/C=C/c2ccc(C)cc2)=[O+]1
fluorescence lifetime (in C1CCOC1): 1.32 ns | fluorescence lifetime (in CC#N): 1.23 ns | fluorescence lifetime (in CC(C)=O): 1.19 ns | fluorescence lifetime (in CS(C)=O): 1.27 ns | fluorescence lifetime (in Cc1ccccc1): 1.34 ns | fluorescence lifetime (in ClC(Cl)Cl): 1.25 ns | fluorescence lifetime (in ClCCl): 1.26 ns

Structure (SMILES): CC1=C(C(C)(C)C)C(C)=[N+]2C1=C(C)c1c(C)c(C(C)(C)C)c(C)n1[B-]2(F)F
fluorescence lifetime (in C1CCCCC1): 3.91 ns | fluorescence lifetime (in C1CCOC1): 4.15 ns | fluorescence lifetime (in C1COCCO1): 4.37 ns | fluorescence lifetime (in CC#N): 4.27 ns | fluorescence lifetime (in CC(C)=O): 4.34 ns | fluorescence lifetime (in CC(C)CC(C)(C)C): 4.43 ns | fluorescence lifetime (in CCC(C)C): 4.19 ns | fluorescence lifetime (in CCCC(C)=O): 4.54 ns | fluorescence lifetime (in CCCCCC): 4.35 ns | fluorescence lifetime (in CCCCCCCCO): 4.68 ns | fluorescence lifetime (in CCCCCCO): 4.59 ns | fluorescence lifetime (in CCCCO): 4.33 ns | fluorescence lifetime (in CCCCOC(C)=O): 4.51 ns | fluorescence lifetime (in CCCO): 4.19 ns | fluorescence lifetime (in CCO): 4.09 ns | fluorescence lifetime (in CCOC(C)=O): 4.31 ns | fluorescence lifetime (in CCOCC): 4.27 ns | fluorescence lifetime (in CN(C)C=O): 4.69 ns | fluorescence lifetime (in CNC=O): 4.45 ns | fluorescence lifetime (in CO): 4.21 ns | fluorescence lifetime (in COC(C)=O): 4.44 ns | fluorescence lifetime (in OCC(F)(F)F): 4.64 ns

Structure (SMILES): CCOc1cc2c(cc1/C=C/C(=C(C#N)C#N)c1ccccc1)c1ccccc1n2CC
fluorescence lifetime (in C1CCOC1): 5.66 ns | fluorescence lifetime (in CC#N): 5.72 ns | fluorescence lifetime (in CCO): 5.24 ns | fluorescence lifetime (in CCOC(C)=O): 5.19 ns | fluorescence lifetime (in CN(C)C=O): 5.41 ns | fluorescence lifetime (in CS(C)=O): 7.08 ns | fluorescence lifetime (in Cc1ccccc1): 6.76 ns | fluorescence lifetime (in ClC(Cl)Cl): 7.78 ns | fluorescence lifetime (in ClCCl): 5.13 ns

Structure (SMILES): CCC(CC)COC1=CC2=C3c4cc(OCC(CC)CC)c(-c5cccs5)n4[B-](F)(F)[n+]4nnn(c43)[B-](F)(F)[N+]2=C1c1cccs1
fluorescence lifetime (in C1CCOC1): 0.5 ns | fluorescence lifetime (in ClCCl): 0.5 ns

Structure (SMILES): CCC1(CC)c2cc(Br)ccc2-c2c1c1c(c3c2C(CC)(CC)c2cc(-c4cccs4)ccc2-3)C(CC)(CC)c2cc(Br)ccc2-1
fluorescence lifetime (in C1CCOC1): 0.92 ns

Structure (SMILES): CCCCCCC(CCCCCC)N1C(=O)c2cccc3c(-c4ccc(-c5ccc(OC)cc5)cc4)ccc(c23)C1=O
fluorescence lifetime (in CCCCCC): 1.35 ns | fluorescence lifetime (in CCCCCCCCCCCCCC): 1.43 ns | fluorescence lifetime (in CCCCCCCCCCCO): 3.21 ns | fluorescence lifetime (in CCCCO): 1.05 ns | fluorescence lifetime (in CN(C)C=O): 1.91 ns | fluorescence lifetime (in Cc1ccccc1): 1.4 ns | fluorescence lifetime (in ClC(Cl)Cl): 2.93 ns

Structure (SMILES): COC(=O)C(Cc1ccc2oc(-c3ccc(Nc4ccccc4)cc3)nc2c1)NC(=O)OC(C)(C)C (stereo not drawn)
fluorescence lifetime (in C1CCCCC1): 1.23 ns | fluorescence lifetime (in C1CCOC1): 2.68 ns | fluorescence lifetime (in C1COCCO1): 1.83 ns | fluorescence lifetime (in CC1CCCO1): 2.75 ns | fluorescence lifetime (in CC1COC(=O)O1): 1.98 ns | fluorescence lifetime (in CC#N): 2.26 ns | fluorescence lifetime (in CC(C)=O): 2.96 ns | fluorescence lifetime (in CC(C)CC(C)(C)C): 1.01 ns | fluorescence lifetime (in CC(C)CO): 2.23 ns | fluorescence lifetime (in CC(C)O): 2.43 ns | fluorescence lifetime (in CC(C)OC(C)C): 2.48 ns | fluorescence lifetime (in CC(O)CO): 0.54 ns | fluorescence lifetime (in CCC(C)CC): 1.03 ns | fluorescence lifetime (in CCCCC): 1.14 ns | fluorescence lifetime (in CCCCCC): 1.02 ns | fluorescence lifetime (in CCCCCCCCC): 1.06 ns | fluorescence lifetime (in CCCCCCCCCC): 1.09 ns | fluorescence lifetime (in CCCCCCCO): 2.23 ns | fluorescence lifetime (in CCCCCCO): 2.41 ns | fluorescence lifetime (in CCCCCO): 2.89 ns | fluorescence lifetime (in CCCCO): 2 ns | fluorescence lifetime (in CCO): 0.8 ns | fluorescence lifetime (in CCOC(C)=O): 2.46 ns | fluorescence lifetime (in CCOCC): 2.27 ns | fluorescence lifetime (in CN(C)C=O): 2.45 ns | fluorescence lifetime (in CO): 0.43 ns | fluorescence lifetime (in COCCOC): 0.9 ns | fluorescence lifetime (in CS(C)=O): 1.92 ns | fluorescence lifetime (in Cc1ccccc1): 1.36 ns | fluorescence lifetime (in Cc1ccccc1C): 1.35 ns | fluorescence lifetime (in ClC(Cl)Cl): 2.26 ns | fluorescence lifetime (in ClCCl): 3.1 ns | fluorescence lifetime (in NC=O): 1.7 ns | fluorescence lifetime (in OC1CCCCC1): 2.23 ns | fluorescence lifetime (in OCCO): 2.95 ns | fluorescence lifetime (in c1ccccc1): 1.42 ns

Structure (SMILES): CCN(CC)c1ccc2c(-c3ccc(S(=O)(=O)O)cc3S(=O)(=O)[O-])c3ccc(=[N+](CC)CC)cc-3oc2c1
fluorescence lifetime (in CC#N): 2.47 ns | fluorescence lifetime (in CCO): 3 ns | fluorescence lifetime (in CN(C)C=O): 2.91 ns | fluorescence lifetime (in O): 1.78 ns

Structure (SMILES): CC1=C(Br)C(C)=[N+]2C1=C(c1c(-c3ccccn3)nc3ccccn13)c1c(C)c(Br)c(C)n1[B-]2(F)F
fluorescence lifetime (in ClCCl): 0.9 ns
